A value given as a limit tells only on which side of the number the result lay.

In patent US20260062422A1 (Halda Therapeutics OpCo, Inc., priority 2022, published 2026) one finds GI50 data, which are given here for 33 compounds.

In the first assay the test system is T47D cells. In words: Cellular growth inhibition assay for T47D cells, CellTiter-Glo. Particulars: 72 hours treatment, CellTiter-Glo 2.0 cell viability. Type of assay: cell-based, human. The protocol: T47D cells were purchased from American Type Cell Culture (ATCC Cat #HTB-133) and then seeded on poly-D-lysine coated, black clear-bottom 384-well plates at 3000/well in 25 μL Dulbecco's Modified Eagle Medium (DMEM) supplemented with 10% w/w Fetal bovine serum (FBS), 0.2 units/mL recombinant human insulin (Gibco Cat #12585014), and 1% w/w Pen-Strep. Pen-Strep is a commercially available mixture of penicillin G and streptomycin, which is used in mammalian cell culture media to prevent bacterial contamination. Dulbecco's Modified Eagle Medium (DMEM) supplemented with 10% w/w fetal bovine serum (FBS), 0.2 units/mL recombinant human insulin, and 1% w/w Pen-Strep is herein referred to as Treatment Medium. Following seeding of cells in the plates, the plates were spun at 300×g for 30 seconds, then equilibrated to room temperature for 30 minutes, and then deposited in a humidified tissue culture incubator maintained at 37° C. with 5% CO2.
At 24 hours after seeding of the cells, dilutions of test compound were prepared in DMSO and dissolved in Treatment Medium, to achieve a final DMSO concentration of 0.5% w/w, thereby providing the Test Compound Solution. A 25 μL aliquot of the Test Compound Solution was added to cells in the well plates. An equal volume of a solution containing DMSO and Treatment Medium was used as a negative control. Following treatment of cells with Test Compound Solution or said equal volume of a solution containing DMSO and Treatment Medium, the plates were spun at 300×g for 30 seconds, and then left in an incubator for 72 hours.
At the end of the treatment duration, cell viability was quantified with CellTiter-Glo 2.0 reagent (Promega Cat #G9243). For this purpose, plates were equilibrated to room temperature for 30 minutes, and then 25 μL of CellTiter-Glo 2.0 reagent was added to cells in the plate wells. Plates were then agitated on a shaker for two minutes at 500 rpm and subsequently incubated at room temperature for 10 minutes. Following incubation, the plates were spun at 3000×g for 30 seconds, then sealed with an optical adhesive cover, and luminescence readings were measured with an EnVision Plate Reader (Perkin Elmer).
Data was normalized using zero luminescence for baseline. A four-parameter non-linear regression curve fit was applied to dose-response data in GraphPad Prism data analysis software to determine the half-maximal growth inhibitory concentration (GI50) for each test compound.
In general, GI50 refers to the concentration at which growth is held to half of that of the control. Read a low GI50 as more potent growth inhibition. For `Cc1sc2c(c1C)C(c1ccc(C#CC3CC(Cc4ncc(C(=O)N[C@H]5C(C)(C)[C@H](Oc6ccc(C#N)c(Cl)c6)C5(C)C)cn4)C3)cc1)=NC(Cc1ncco1)c1nnc(C)n1-2` (stereo partly drawn) [Compound I-561], the GI50 is under 500 nM.

The compound `Cc1sc2c(c1C)C(c1ccc(C#CC3CC4(CCCN(c5ncc(C(=O)N[C@H]6C(C)(C)[C@H](Oc7ccc(C#N)c(Cl)c7)C6(C)C)cn5)C4)C3)cc1)=NC1(CC1)c1nnc(C)n1-2` [Compound I-487] gave a GI50 of over 3000 nM.

In the case of `Cc1sc2c(c1C)C(c1ccc([C@H]3C[C@@H]3CC3CCCN(c4ncc(C(=O)N[C@H]5C(C)(C)[C@H](Oc6ccc(C#N)c(Cl)c6)C5(C)C)cn4)C3)cc1)=NC(Cc1ncco1)c1nnc(C)n1-2` (stereo partly drawn) [Compound I-491], the GI50 is over 3000 nM.

In the case of `Cc1sc2c(c1C)C(c1ccc(C3CC3C3CC4(CCN(c5ncc(C(=O)N[C@H]6C(C)(C)[C@H](Oc7ccc(C#N)c(Cl)c7)C6(C)C)cn5)CC4)C3)cc1)=N[C@@H](C)c1nnc(C)n1-2` (stereo partly drawn) [Compound I-556], the GI50 was over 3000 nM.

In the case of `Cc1sc2c(c1C)C(c1ccc(C3CC3C3CC4(CCN(c5cnc(C(=O)N[C@H]6C(C)(C)[C@H](Oc7ccc(C#N)c(Cl)c7)C6(C)C)cn5)CC4)C3)cc1)=NC(Cc1ncco1)c1nnc(C)n1-2` (stereo partly drawn) [Compound I-540], the GI50 was under 500 nM.

In turn, `Cc1sc2c(c1C)C(c1ccc(CC3CC(C4CCCN(c5ncc(C(=O)N[C@H]6C(C)(C)[C@H](Oc7ccc(C#N)c(Cl)c7)C6(C)C)cn5)C4)C3)cc1)=N[C@@H](C)c1nnc(C)n1-2` (stereo partly drawn) [Compound I-489] returned a GI50 of under 500 nM.

In turn, `Cc1sc2c(c1C)C(c1ccc(C#CC3CCC(Cc4ncc(C(=O)N[C@H]5C(C)(C)[C@H](Oc6ccc(C#N)c(Cl)c6)C5(C)C)cn4)CC3)cc1)=N[C@@H](Cc1ncco1)c1nnc(C)n1-2` (stereo partly drawn) [Compound I-506] came in with a GI50 of 500 to 1500 nM.

`Cc1sc2c(c1C)C(c1ccc(N3CC(C4CCCC(Cc5ncc(C(=O)N[C@H]6C(C)(C)[C@H](Oc7ccc(C#N)c(Cl)c7)C6(C)C)cn5)C4)C3)cc1)=N[C@@H](Cc1ncco1)c1nnc(C)n1-2` (stereo partly drawn) [Compound I-581] gave a GI50 of under 500 nM.

`Cc1sc2c(c1C)C(c1ccc([C@H]3C[C@@H]3CC3CCCN(c4ncc(C(=O)N[C@H]5C(C)(C)[C@H](Oc6ccc(C#N)c(Cl)c6)C5(C)C)cn4)C3)cc1)=NC(Cc1ncco1)c1nnc(C)n1-2` (stereo partly drawn) [Compound I-495] showed a 50% growth inhibitory concentration (GI50) of under 500 nM.

As for `Cc1sc2c(c1C)C(c1ccc(N3CC(C4CCC(Cc5ncc(C(=O)N[C@H]6C(C)(C)[C@H](Oc7ccc(C#N)c(Cl)c7)C6(C)C)cn5)CC4)C3)cc1)=N[C@@H](Cc1ncco1)c1nnc(C)n1-2` (stereo partly drawn) [Compound I-543], the GI50 is over 3000 nM.

In turn, `Cc1sc2c(c1C)C(c1ccc(C3CC3C3CC4(CCN(c5cnc(C(=O)N[C@H]6C(C)(C)[C@H](Oc7ccc(C#N)c(Cl)c7)C6(C)C)cn5)CC4)C3)cc1)=NC(Cc1ncco1)c1nnc(C)n1-2` (stereo partly drawn) [Compound I-539] showed a GI50 of over 3000 nM.

As for `Cc1sc2c(c1C)C(c1ccc(N3CC(C4CCCC(Cc5ncc(C(=O)N[C@H]6C(C)(C)[C@H](Oc7ccc(C#N)c(Cl)c7)C6(C)C)cn5)C4)C3)cc1)=N[C@@H](Cc1ncco1)c1nnc(C)n1-2` (stereo partly drawn) [Compound I-580], the GI50 was under 500 nM.

Staying with this assay, now noted: Homo sapiens, T47D, 72 h, 72 hours treatment, CellTiter-Glo 2.0 cell viability.
As for `Cc1sc2c(c1C)C(c1ccc(N3CC(C4CCN(c5ccc(C(=O)N[C@H]6C(C)(C)[C@H](Oc7ccc(C#N)c(Cl)c7)C6(C)C)nc5)CC4)C3)cc1)=N[C@@H](C)c1nnc(C)n1-2` [Compound I-552], the GI50 lay in the range of 1500 to 3000 nM.

In turn, `Cc1sc2c(c1C)C(c1ccc(ON3CC4(C3)CC3(CCN(c5cnc(C(=O)N[C@H]6C(C)(C)[C@H](Oc7ccc(C#N)c(Cl)c7)C6(C)C)cn5)CC3)C4)cc1)=N[C@@H](Cc1ncco1)c1nnc(C)n1-2` [Compound I-545] displayed a GI50 of 500 to 1500 nM.

The compound `Cc1sc2c(c1C)C(c1ccc(CC3CC4(CCN(c5ccc(C(=O)N[C@H]6C(C)(C)[C@H](Oc7ccc(C#N)c(Cl)c7)C6(C)C)nc5)CC4)C3)cc1)=N[C@@H](Cc1ncco1)c1nnc(C)n1-2` [Compound I-553] came in with a GI50 of under 500 nM.

`Cc1sc2c(c1C)C(c1ccc(-n3cnc(C4CCN(c5ncc(C(=O)N[C@H]6C(C)(C)[C@H](Oc7ccc(C#N)c(Cl)c7)C6(C)C)cn5)CC4)n3)cc1)=N[C@@H](Cc1ncco1)c1nnc(C)n1-2` [Compound I-497]: the GI50 is under 500 nM.

The compound `Cc1sc2c(c1C)C(c1ccc(C3CC3C3CC4(CCN(c5ncc(C(=O)N[C@H]6C(C)(C)[C@H](Oc7ccc(C#N)c(Cl)c7)C6(C)C)cn5)CC4)C3)cc1)=N[C@@H](C)c1nnc(C)n1-2` (stereo partly drawn) [Compound I-537] returned a GI50 of over 3000 nM.

Turning to `Cc1sc2c(c1C)C(c1ccc(CCOC3CCN(c4ncc(C(=O)N[C@H]5C(C)(C)[C@H](Oc6ccc(C#N)c(Cl)c6)C5(C)C)cn4)CC3)cc1)=N[C@@H](C)c1nnc(C)n1-2` [Compound I-501], the GI50 is 500 to 1500 nM.

`Cc1sc2c(c1C)C(c1ccc(OCC3CC4(CCCN(c5ncc(C(=O)N[C@H]6C(C)(C)[C@H](Oc7ccc(C#N)c(Cl)c7)C6(C)C)cn5)C4)C3)cc1)=NC1(CC1)c1nnc(C)n1-2` [Compound I-499] came in with a GI50 of over 3000 nM.

`Cc1sc2c(c1C)C(c1ccc(N3CC(CC4CCN(c5cnc(C(=O)N[C@H]6C(C)(C)[C@H](Oc7ccc(C#N)c(Cl)c7)C6(C)C)cn5)CC4)C3)cc1)=NC1(CC1)c1nnc(C)n1-2` [Compound I-526]: the GI50 was over 3000 nM.

Compound `Cc1sc2c(c1C)C(c1ccc(N3CC(CC4CN(c5ncc(C(=O)N[C@H]6C(C)(C)[C@H](Oc7ccc(C#N)c(Cl)c7)C6(C)C)cn5)C4)C3)cc1)=N[C@@H](Cc1ncco1)c1nnc(C)n1-2` [Compound I-562] yielded a GI50 of under 500 nM.

Compound `Cc1sc2c(c1C)C(c1ccc(N3CC(C4CCN(c5ccc(C(=O)N[C@H]6C(C)(C)[C@H](Oc7ccc(C#N)c(Cl)c7)C6(C)C)cn5)CC4)C3)cc1)=NC1(CC1)c1nnc(C)n1-2` [Compound I-534] came in with a 50% growth inhibitory concentration (GI50) of over 3000 nM.

`Cc1sc2c(c1C)C(c1ccc([C@@H]3C[C@H]3C3CC4(CCN(c5cnc(C(=O)N[C@H]6C(C)(C)[C@H](Oc7ccc(C#N)c(Cl)c7)C6(C)C)cn5)CC4)C3)cc1)=N[C@@H](Cc1ncco1)c1nnc(C)n1-2` [Compound I-518] gave a GI50 of over 3000 nM.

The compound `Cc1sc2c(c1C)C(c1ccc(N3CC(CC4CCN(c5cnc(C(=O)N[C@H]6C(C)(C)[C@H](Oc7ccc(C#N)c(Cl)c7)C6(C)C)cn5)CC4)C3)cc1)=N[C@@H](Cc1ncco1)c1nnc(C)n1-2` [Compound I-575] had a GI50 of under 500 nM.

Compound `Cc1sc2c(c1C)C(c1ccc(CC3CC4(CCN(c5ccc(C(=O)N[C@H]6C(C)(C)[C@H](Oc7ccc(C#N)c(Cl)c7)C6(C)C)nc5)CC4)C3)cc1)=NC1(CC1)c1nnc(C)n1-2` [Compound I-522] yielded a GI50 of 1500 to 3000 nM.

With `Cc1sc2c(c1C)C(c1ccc(N3CC(CC4CCN(c5ncc(C(=O)N[C@H]6C(C)(C)[C@H](Oc7ccc(C#N)c(Cl)c7)C6(C)C)cn5)CC4)C3)cc1)=N[C@@H](Cc1ncco1)c1nnc(C)n1-2` [Compound I-574], the GI50 was under 500 nM.

`Cc1sc2c(c1C)C(c1ccc(N3CC(C4CCN(c5ccc(C(=O)N[C@H]6C(C)(C)[C@H](Oc7ccc(C#N)c(Cl)c7)C6(C)C)nc5)CC4)C3)cc1)=NC1(CC1)c1nnc(C)n1-2` [Compound I-533] yielded a 50% growth inhibitory concentration (GI50) of 1500 to 3000 nM.

On to `Cc1sc2c(c1C)C(c1ccc(N3CC(C4CCN(c5cnc(C(=O)N[C@H]6C(C)(C)[C@H](Oc7ccc(C#N)c(Cl)c7)C6(C)C)cn5)CC4)C3)cc1)=N[C@@H](Cc1ncco1)c1nnc(C)n1-2` [Compound I-558], for which the concentration for 50% growth inhibition (GI50) is under 500 nM.

The compound `Cc1sc2c(c1C)C(c1ccc(OC3CC4(C3)CC3(CCN(c5cnc(C(=O)N[C@H]6C(C)(C)[C@H](Oc7ccc(C#N)c(Cl)c7)C6(C)C)cn5)CC3)C4)cc1)=NC1(CC1)c1nnc(C)n1-2` [Compound I-521] came in with a GI50 of over 3000 nM.

Compound `Cc1sc2c(c1C)C(c1ccc(N3CC(CC4CCN(c5ccc(C(=O)N[C@H]6C(C)(C)[C@H](Oc7ccc(C#N)c(Cl)c7)C6(C)C)cn5)CC4)C3)cc1)=NC1(CC1)c1nnc(C)n1-2` [Compound I-523] yielded a GI50 of 1500 to 3000 nM.

The compound `Cc1sc2c(c1C)C(c1ccc(C3CC3C3CC4(CCN(c5cnc(C(=O)N[C@H]6C(C)(C)[C@H](Oc7ccc(C#N)c(Cl)c7)C6(C)C)cn5)CC4)C3)cc1)=N[C@@H](C)c1nnc(C)n1-2` (stereo partly drawn) [Compound I-535] displayed a GI50 of over 3000 nM.

As for `Cc1sc2c(c1C)C(c1ccc(N3CC4(C3)CN(c3ncc(C(=O)N[C@H]5C(C)(C)[C@H](Oc6ccc(C#N)c(Cl)c6)C5(C)C)cn3)C4)cc1)=N[C@@H](C)c1nnc(C)n1-2` [Compound I-516], the GI50 fell in the range of 1500 to 3000 nM.

Regarding `Cc1sc2c(c1C)C(c1ccc(C#CC3CC4(CCCN(c5ncc(C(=O)N[C@H]6C(C)(C)[C@H](Oc7ccc(C#N)c(Cl)c7)C6(C)C)cn5)C4)C3)cc1)=NC1(CC1)c1nnc(C)n1-2` [Compound I-486], the GI50 is over 3000 nM.
